According to PMC5218480 (PLoS ONE, 2017):

Test system: MV-4-11 cells
Test: Gene expression microarray analysis (Affymetrix PrimeView) and GSEA
Format: cell-based, human
Set-up: RFU PODN (11730768_x_at) / Fold change /veh PODN (11730768_x_at) / RFU LINC00158 (11744669_a_at) / Fold change /veh LINC00158 (11744669_a_at) / RFU DUSP10 (11751237_a_at) / Fold change /veh DUSP10 (11751237_a_at) / RFU ID3 (11757404_x_at) / Fold change /veh ID3 (11757404_x_at) / RFU PLEKHG5 (11737974_s_at) / Fold change /veh PLEKHG5 (11737974_s_at) / RFU LRRC4B (11730491_at) / Fold change /veh LRRC4B (11730491_at) / RFU GIMAP4 (11747438_a_at) / Fold change /veh GIMAP4 (11747438_a_at) / RFU KRT8 (11758183_x_at) / Fold change /veh KRT8 (11758183_x_at) / RFU CNN1 (11734310_a_at) / Fold change /veh CNN1 (11734310_a_at) / RFU VPS37D (11726825_at) / Fold change /veh VPS37D (11726825_at) / RFU C10orf10 (11716522_x_at) / Fold change /veh C10orf10 (11716522_x_at) / RFU KIR2DL2 /// KIR2DL4 /// KIR2DL5A /// KIR2DL5B /// KIR2DS1 /// KIR2DS2 /// KIR2DS3 /// KIR2DS4 /// KIR3DL3 /// KIR3DL3 /// KIR3DS1 (11738374_at) / Fold change /veh KIR2DL2 /// KIR2DL4 /// KIR2DL5A /// KIR2DL5B /// KIR2DS1 /// KIR2DS2 /// KIR2DS3 /// KIR2DS4 /// KIR3DL3 /// KIR3DL3 /// KIR3DS1 (11738374_at) / RFU C1QL1 (11718748_at) / Fold change /veh C1QL1 (11718748_at) / RFU TMPRSS4 (11747572_a_at) / Fold change /veh TMPRSS4 (11747572_a_at) / RFU HAMP (11756126_x_at) / Fold change /veh HAMP (11756126_x_at) / RFU RNFT2 (11725882_a_at) / Fold change /veh RNFT2 (11725882_a_at) / RFU NR4A2 (11747474_a_at) / Fold change /veh NR4A2 (11747474_a_at) / RFU ABCC12 (11746883_a_at) / Fold change /veh ABCC12 (11746883_a_at) / RFU TMEM136 (11760407_x_at) / Fold change /veh TMEM136 (11760407_x_at) / RFU CLDN22 /// WWC2 (11732394_at) / Fold change /veh CLDN22 /// WWC2 (11732394_at) / RFU HLA-DPB1 (11760878_x_at) / Fold change /veh HLA-DPB1 (11760878_x_at) / RFU SPINT1 (11716480_a_at) / Fold change /veh SPINT1 (11716480_a_at) / RFU GAP43 (11754022_s_at) / Fold change /veh GAP43 (11754022_s_at) / RFU A4GNT (11735810_at) / Fold change /veh A4GNT (11735810_at) / RFU PRB3 (11715151_x_at) / Fold change /veh PRB3 (11715151_x_at) / RFU TUBB4B (11761932_at) / Fold change /veh TUBB4B (11761932_at) / RFU CAPN14 (11732068_a_at) / Fold change /veh CAPN14 (11732068_a_at) / RFU TMCC2 (11721928_a_at) / Fold change /veh TMCC2 (11721928_a_at) / RFU IRGQ (11745062_a_at) / Fold change /veh IRGQ (11745062_a_at) / RFU FAM174B (11720279_a_at) / Fold change /veh FAM174B (11720279_a_at) / RFU TMPRSS4 (11748680_a_at) / Fold change /veh TMPRSS4 (11748680_a_at) / RFU FAM212B (11763350_a_at) / Fold change /veh FAM212B (11763350_a_at) / RFU PLEKHG5 (11743358_a_at) / Fold change /veh PLEKHG5 (11743358_a_at) / RFU ZSCAN30 (11745921_a_at) / Fold change /veh ZSCAN30 (11745921_a_at) / RFU CMKLR1 (11741424_a_at) / Fold change /veh CMKLR1 (11741424_a_at) / RFU LOC101060620 /// MAPK8IP1 (11723275_at) / Fold change /veh LOC101060620 /// MAPK8IP1 (11723275_at) / RFU SPTSSB (11747773_x_at) / Fold change /veh SPTSSB (11747773_x_at) / RFU PRSS12 (11739890_at) / Fold change /veh PRSS12 (11739890_at) / RFU BIN1 (11741810_x_at) / Fold change /veh BIN1 (11741810_x_at) / RFU WNT11 (11732464_a_at) / Fold change /veh WNT11 (11732464_a_at) / RFU C10orf10 (11716521_a_at) / Fold change /veh C10orf10 (11716521_a_at) / RFU C5orf56 (11738089_at) / Fold change /veh C5orf56 (11738089_at) / RFU CYB561 (11721691_x_at) / Fold change /veh CYB561 (11721691_x_at) / RFU ANKRD19P (11752326_a_at) / Fold change /veh ANKRD19P (11752326_a_at) / RFU OR2T12 /// OR2T33 /// OR2T8 (11738714_s_at) / Fold change /veh OR2T12 /// OR2T33 /// OR2T8 (11738714_s_at) / RFU VCAN (11748164_a_at) / Fold change /veh VCAN (11748164_a_at) / RFU JSRP1 (11732532_at) / Fold change /veh JSRP1 (11732532_at) / RFU KRTAP10-11 (11738290_x_at) / Fold change /veh KRTAP10-11 (11738290_x_at) / RFU MYO3A (11730013_a_at) / Fold change /veh MYO3A (11730013_a_at) / RFU EBF3 (11725865_a_at) / Fold change /veh EBF3 (11725865_a_at) / RFU CAMK2N1 (11719241_x_at) / Fold change /veh CAMK2N1 (11719241_x_at) / RFU C5orf56 (11738088_a_at) / Fold change /veh C5orf56 (11738088_a_at) / RFU OLFML3 (11715873_a_at) / Fold change /veh OLFML3 (11715873_a_at) / RFU LOC100653217 /// NTM (11731650_a_at) / Fold change /veh LOC100653217 /// NTM (11731650_a_at) / RFU MAPK11 (11762145_a_at) / Fold change /veh MAPK11 (11762145_a_at) / RFU FIZ1 (11724087_x_at) / Fold change /veh FIZ1 (11724087_x_at) / RFU OASL (11726364_x_at) / Fold change /veh OASL (11726364_x_at) / RFU SOX15 (11748057_x_at) / Fold change /veh SOX15 (11748057_x_at) / RFU CD79A (11719716_a_at) / Fold change /veh CD79A (11719716_a_at) / RFU HIST1H1D (11736915_at) / Fold change /veh HIST1H1D (11736915_at) / RFU CASKIN2 (11723855_a_at) / Fold change /veh CASKIN2 (11723855_a_at) / RFU LOC730098 (11760151_x_at) / Fold change /veh LOC730098 (11760151_x_at) / RFU OR4N2 (11742367_at) / Fold change /veh OR4N2 (11742367_at) / RFU PRRT2 (11749266_a_at) / Fold change /veh PRRT2 (11749266_a_at) / RFU SNX32 (11753110_a_at) / Fold change /veh SNX32 (11753110_a_at) / RFU CDHR5 (11726645_a_at) / Fold change /veh CDHR5 (11726645_a_at) / RFU RCAN1 (11760418_a_at) / Fold change /veh RCAN1 (11760418_a_at) / RFU FAM167A (11723789_a_at) / Fold change /veh FAM167A (11723789_a_at) / RFU FAM26E (11764081_at) / Fold change /veh FAM26E (11764081_at) / RFU ISYNA1 (11749810_s_at) / Fold change /veh ISYNA1 (11749810_s_at) / RFU ACY1 (11761880_at) / Fold change /veh ACY1 (11761880_at) / RFU 11764098_at / Fold change /veh 11764098_at / RFU SAMD14 (11745864_x_at) / Fold change /veh SAMD14 (11745864_x_at) / RFU NPB (11741838_a_at) / Fold change /veh NPB (11741838_a_at) / RFU TMPRSS6 (11731388_a_at) / Fold change /veh TMPRSS6 (11731388_a_at) / RFU KRTAP10-2 (11738614_at) / Fold change /veh KRTAP10-2 (11738614_at) / RFU ARHGAP8 /// PRR5-ARHGAP8 (11727945_x_at) / Fold change /veh ARHGAP8 /// PRR5-ARHGAP8 (11727945_x_at) / RFU KRTAP5-7 /// NADSYN1 (11734609_at) / Fold change /veh KRTAP5-7 /// NADSYN1 (11734609_at) / RFU RASL12 (11751679_a_at) / Fold change /veh RASL12 (11751679_a_at) / RFU CDKN2B (11736163_a_at) / Fold change /veh CDKN2B (11736163_a_at) / RFU PRF1 (11729649_at) / Fold change /veh PRF1 (11729649_at) / RFU, ZNF638 /// ZNF638-IT1 / Fold change vs veh, ZNF638 /// ZNF638-IT1 / RFU, PANK3 / Fold change vs veh, PANK3 / RFU, SH3YL1 / Fold change vs veh, SH3YL1 / RFU, ZEB2 / Fold change vs veh, ZEB2 / RFU, NRIP1 / Fold change vs veh, NRIP1 / RFU, PTTG1IP / Fold change vs veh, PTTG1IP / RFU, CAPN2 / Fold change vs veh, CAPN2 / RFU, MED14 / Fold change vs veh, MED14 / RFU, SNORA58 / Fold change vs veh, SNORA58 / RFU, C1orf63 / Fold change vs veh, C1orf63 / RFU, LRRFIP1 / Fold change vs veh, LRRFIP1 / RFU, NDUFAF7 / Fold change vs veh, NDUFAF7 / RFU, SLC12A2 / Fold change vs veh, SLC12A2 / RFU, IBTK / Fold change vs veh, IBTK / RFU, ESF1 / Fold change vs veh, ESF1 / Fold change vs veh, TMEM50B / RFU, TAOK1 / Fold change vs veh, TAOK1 / RFU, ACBD3 / Fold change vs veh, ACBD3 / RFU, TMA16 / Fold change vs veh, TMA16 / RFU, RWDD3 / Fold change vs veh, RWDD3 / RFU, BCAT1 / Fold change vs veh, BCAT1 / RFU, EDEM3 / Fold change vs veh, EDEM3 / RFU, TMEM33 / Fold change vs veh, TMEM33 / RFU, WDR75 / Fold change vs veh, WDR75 / RFU, AHCTF1 / Fold change vs veh, AHCTF1 / RFU, TFRC / Fold change vs veh, TFRC / RFU, ZDHHC17 / Fold change vs veh, ZDHHC17 / RFU, NOM1 / Fold change vs veh, NOM1 / RFU, ARL8B / Fold change vs veh, ARL8B / RFU, ZBTB11 / Fold change vs veh, ZBTB11 / RFU, TAMM41 / Fold change vs veh, TAMM41 / RFU, KIAA1704 /// LOC100996395 / Fold change vs veh, KIAA1704 /// LOC100996395 / RFU, ING1 / Fold change vs veh, ING1 / RFU, TRMT61B / Fold change vs veh, TRMT61B / RFU, FUBP3 / Fold change vs veh, FUBP3 / RFU, TP53 / Fold change vs veh, TP53 / RFU, TNKS2 / Fold change vs veh, TNKS2 / RFU, ZFP14 / Fold change vs veh, ZFP14 / RFU, ACTR2 / Fold change vs veh, ACTR2 / RFU, PPP3R1 / Fold change vs veh, PPP3R1 / RFU, PIK3R1 / Fold change vs veh, PIK3R1 / RFU, HNRNPA1 / Fold change vs veh, HNRNPA1 / RFU, RNF170 / Fold change vs veh, RNF170 / RFU, ZNF28 / Fold change vs veh, ZNF28 / RFU, RNGTT / Fold change vs veh, RNGTT / RFU, OGT / Fold change vs veh, OGT / RFU, BRD1 / Fold change vs veh, BRD1 / RFU, MARS / Fold change vs veh, MARS / RFU, ZNF655 / Fold change vs veh, ZNF655 / RFU, FAHD1 / Fold change vs veh, FAHD1 / RFU, BDP1 / Fold change vs veh, BDP1 / RFU, LRRCC1 / Fold change vs veh, LRRCC1 / RFU, ARID1A / Fold change vs veh, ARID1A / RFU, ZNF146 / Fold change vs veh, ZNF146 / RFU, ZNF330 / Fold change vs veh, ZNF330 / RFU, GPN3 / Fold change vs veh, GPN3 / RFU, C9orf123 / Fold change vs veh, C9orf123 / RFU, N4BP2L2 / Fold change vs veh, N4BP2L2 / RFU, ARFIP1 / Fold change vs veh, ARFIP1 / RFU, FAM179B / Fold change vs veh, FAM179B / RFU, BCL10 / Fold change vs veh, BCL10 / RFU, UHRF1BP1L / Fold change vs veh, UHRF1BP1L / RFU, BET1 / Fold change vs veh, BET1 / RFU, CNOT2 / Fold change vs veh, CNOT2 / RFU, ZNF268 / Fold change vs veh, ZNF268 / Fold change vs veh, ZNF507 / RFU, DGCR2 / Fold change vs veh, DGCR2 / RFU, WDSUB1 / Fold change vs veh, WDSUB1 / Fold change vs veh, HSP90B1 /// MIR3652 / RFU, ADSS / Fold change vs veh, ADSS / RFU, GK / Fold change vs veh, GK / RFU, ZNF148 / Fold change vs veh, ZNF148 / RFU, TAF9 / Fold change vs veh, TAF9 / RFU, SLC1A5 / Fold change vs veh, SLC1A5 / RFU, SLMO2 / Fold change vs veh, SLMO2 / RFU, ABCC4 / Fold change vs veh, ABCC4 / RFU, LOC101060439 /// RAP1B / Fold change vs veh, LOC101060439 /// RAP1B / RFU, RFX7 / Fold change vs veh, RFX7 / RFU, GTPBP10 / Fold change vs veh, GTPBP10 / RFU, CNEP1R1 / Fold change vs veh, CNEP1R1 / RFU, BIVM-ERCC5 /// ERCC5 / Fold change vs veh, BIVM-ERCC5 /// ERCC5 / RFU, ILF3 / Fold change vs veh, ILF3 / RFU 11762660_at / Fold change /veh 11762660_at / RFU VCAN (11757783_s_at) / Fold change /veh VCAN (11757783_s_at) / RFU DDX43 (11728927_at) / Fold change /veh DDX43 (11728927_at) / RFU KRT8 (11758188_x_at) / Fold change /veh KRT8 (11758188_x_at) / RFU NKD1 (11759106_at) / Fold change /veh NKD1 (11759106_at) / RFU SRD5A1 (11742802_a_at) / Fold change /veh SRD5A1 (11742802_a_at) / RFU TPSAB1 /// TPSB2 (11721975_s_at) / Fold change /veh TPSAB1 /// TPSB2 (11721975_s_at) / RFU GSTM3 (11746129_a_at) / Fold change /veh GSTM3 (11746129_a_at) / RFU IL23R (11737362_x_at) / Fold change /veh IL23R (11737362_x_at) / RFU TMEM51 (11727254_a_at) / Fold change /veh TMEM51 (11727254_a_at) / RFU PIWIL2 (11732686_x_at) / Fold change /veh PIWIL2 (11732686_x_at) / RFU ORM1 (11744905_x_at) / Fold change /veh ORM1 (11744905_x_at) / RFU CCDC152 (11743942_at) / Fold change /veh CCDC152 (11743942_at) / RFU ECM1 (11717891_a_at) / Fold change /veh ECM1 (11717891_a_at) / RFU IL23R (11748794_a_at) / Fold change /veh IL23R (11748794_a_at) / RFU TNFAIP8L3 (11732012_x_at) / Fold change /veh TNFAIP8L3 (11732012_x_at) / RFU MBOAT4 (11741988_at) / Fold change /veh MBOAT4 (11741988_at) / RFU 11764193_at / Fold change /veh 11764193_at / RFU TMEM53 (11763286_at) / Fold change /veh TMEM53 (11763286_at) / RFU MAGEB2 (11727129_at) / Fold change /veh MAGEB2 (11727129_at) / RFU TMEM200A (11744735_a_at) / Fold change /veh TMEM200A (11744735_a_at) / RFU CCDC152 (11751479_a_at) / Fold change /veh CCDC152 (11751479_a_at) / RFU FAM211A (11726209_a_at) / Fold change /veh FAM211A (11726209_a_at) / RFU RGS16 (11746705_a_at) / Fold change /veh RGS16 (11746705_a_at) / RFU VCAN (11755009_s_at) / Fold change /veh VCAN (11755009_s_at) / RFU RHOB (11743442_s_at) / Fold change /veh RHOB (11743442_s_at) / RFU RGS16 (11720943_a_at) / Fold change /veh RGS16 (11720943_a_at) / RFU RGS16 (11720944_at) / Fold change /veh RGS16 (11720944_at) / RFU, VPS4B / Fold change vs veh, VPS4B / RFU, CREB1 / Fold change vs veh, CREB1 / RFU, DNAJC13 / Fold change vs veh, DNAJC13 / RFU, GNAQ / Fold change vs veh, GNAQ / RFU, CDK5R1 / Fold change vs veh, CDK5R1 / RFU, ZRANB3 / Fold change vs veh, ZRANB3 / RFU, CUL4A / Fold change vs veh, CUL4A / RFU, CCNY / Fold change vs veh, CCNY / RFU, UFL1 / Fold change vs veh, UFL1 / RFU, COG3 / Fold change vs veh, COG3 / RFU, DIAPH2 / Fold change vs veh, DIAPH2 / RFU, SKA2 / Fold change vs veh, SKA2 / RFU, AFF3 / Fold change vs veh, AFF3 / RFU, LMF1 / Fold change vs veh, LMF1 / RFU, IPO11 / Fold change vs veh, IPO11 / RFU, DFFB / Fold change vs veh, DFFB / RFU, FOXP1 / Fold change vs veh, FOXP1 / RFU, CARD8 / Fold change vs veh, CARD8 / RFU, STRN3 / Fold change vs veh, STRN3 / RFU, ADK / Fold change vs veh, ADK / RFU, RASSF2 / Fold change vs veh, RASSF2 / RFU, WIPF1 / Fold change vs veh, WIPF1 / RFU, LARP1B / Fold change vs veh, LARP1B / RFU, RASA1 / Fold change vs veh, RASA1 / RFU, RB1 / Fold change vs veh, RB1 / RFU, PPFIA1 / Fold change vs veh, PPFIA1 / RFU, MAT2A / Fold change vs veh, MAT2A / RFU, CCT5 / Fold change vs veh, CCT5 / RFU, WDR92 / Fold change vs veh, WDR92 / RFU, CUX1 / Fold change vs veh, CUX1 / RFU, TTC7A / Fold change vs veh, TTC7A / RFU, TMEM135 / Fold change vs veh, TMEM135 / RFU, DEPTOR / Fold change vs veh, DEPTOR / RFU, CPM / Fold change vs veh, CPM / RFU, DNAJB6 / Fold change vs veh, DNAJB6 / RFU, CACNA2D3 / Fold change vs veh, CACNA2D3 / RFU, DTX4 / Fold change vs veh, DTX4 / RFU, TFCP2 / Fold change vs veh, TFCP2 / RFU, GMCL1 /// GMCL1P1 / Fold change vs veh, GMCL1 /// GMCL1P1 / RFU, AEBP2 / Fold change vs veh, AEBP2 / RFU, SNHG1 /// SNORD22 /// SNORD25 /// SNORD26 /// SNORD27 /// SNORD28 /// SNORD29 /// SNORD31 / Fold change vs veh, SNHG1 /// SNORD22 /// SNORD25 /// SNORD26 /// SNORD27 /// SNORD28 /// SNORD29 /// SNORD31 / Fold change (Aza/veh), C12orf56 (ProbeSet 11735607_a_at) / Fold change (ACY-1035/veh), C12orf56 (ProbeSet 11735607_a_at) / Fold change (Aza/veh), FGFR1OP (ProbeSet 11751329_s_at) / Fold change (ACY-1035/veh), FGFR1OP (ProbeSet 11751329_s_at) / Fold change (Aza/veh), VPS36 (ProbeSet 11739960_a_at) / Fold change (ACY-1035/veh), VPS36 (ProbeSet 11739960_a_at) / RFU SYPL1 (11715823_x_at) / Fold change /veh SYPL1 (11715823_x_at) / RFU IGFBP7 (11715501_s_at) / Fold change /veh IGFBP7 (11715501_s_at) / RFU REEP3 (11722064_at) / Fold change /veh REEP3 (11722064_at) / RFU IGLL1 (11728026_x_at) / Fold change /veh IGLL1 (11728026_x_at): dose or concentration left out as unconfirmed
Settings: ProbeSet 11723944_a_at; LIST B

Compound: Nc1ncn([C@@H]2O[C@H](CO)[C@@H](O)[C@H]2O)c(=O)n1 [azacitidine]
- RFU, PTTG1IP: 678.15 RFU
